# Source: patent US7090996B2, “Process for examining membrane enclosed biocompartments” (Micronas GmbH, priority 2000, dated 2006)
# Test system: biocompartments 1 (biological cells)
# Experiment: Micro-flow chamber ISFET measurement of acidification and respiratory activity of biocompartments
# Assay type: cell-based
# Conditions: for acidification ΔpH−31 activated by the biocompartments / respiratory activity of the biocompartments: agent in culture medium, stand-still phase of pump, compared with agent-free medium (FIG. 5)
# Source text: In a process for the examining of membrane enclosed biocompartments, biocompartments 1 were designed as biological cells placed in a micro-flow chamber 2. […] The space 3 is provided with an inlet opening 4 and an exit opening 5 for nutrient or culture medium. The chamber housing has a chamber base part 6 and a top part 7 which fits said base part 6 and the two parts are sealed liquid tight to one another by an interposed sealing ring 8.
# The inlet opening 4 of the measurement space is connected to the measuring space 3 by a feed conduit 9, which in turn is connected to a culture medium supply 10. A pump 11 is placed in the feed canal 9 for the transport of the culture medium. The pump 11 can be turned on and off by means of a control apparatus (not shown). The exit opening 5 of the micro-flow chamber 2 is joined by means of a connecting line 12, to an exhaust opening 13 for release of the culture medium. In the measuring space 3, the biocompartments 1 stand in contact with the culture medium.
# In the base of the measuring space 3, are placed a plurality of ISFET's 14. […] Between drain 16 and source 17, is a gate 18. Gate 18, drain 16 and source 17 are electrically insulated from the measurement space 3 by means of a silicon nitride layer (not shown). The silicon nitride layer forms on its side remote from the gate 18, an active sensor layer. By means of which layer, the ISFET 14 is controllable through the hydrogen ions present in the culture medium. Gate 18, drain 16 and source 17 of the ISFET are connected with a known evaluation apparatus for the determination of the pH value of the culture medium which is somewhat proportional to measurement signal of the respective ISFET 14.
# As is particularly well presented in FIG. 2, an electrode 19 is placed in close proximity to the gates 18. This electrode 19 is constructed of a noble metal, such as palladium and is in direct contact with the culture medium.
# A reference electrode 20 is paired with the operational electrode 19, which contacts the culture medium at a spatial distance from the ISFET 14. […] The reference electrode 20 and the operational electrodes 19 can be connected to an electrical source of potential for the application of an electric potential on the culture medium.
# By means of the above described measurement arrangement, the respiratory activities of the biocompartments 1 can be indirectly measured. To carry out this purpose, the pump 11, which acts to transport the through-put of the culture medium through the measurement space 3, is temporarily stopped. In FIG. 4, the period of time during which the through-put in the measurement space 3 is stopped, is designated as the time T1 (stopping the pump 11) and T2 (starting the pump 11). This time interval can run, for instance, some 8 minutes.
# Subsequently, by means of the ISFET 14, a first pH−1 is measured for the pH value of the culture medium, preparatory to a first pH measurement pair. […] When this occurs, this potential preferably is set at some −700 to −800 millivolts. In the embodiment of FIG. 3, this potential is applied to the electrodes 19, 20. The surface of the operational electrode 19 exposed to contact with the culture medium is chosen to be as small as possible with potential measuring preferably less than 1000 μm^2, so that, during the application of electrical voltage, the consumption of oxygen at the operational electrode 19 will be held at the lowest possible level. […]
molecule,measurement,setting,value
Triton®,viability of the biocompartments,agent in culture medium (FIG. 7),dying out
same,acidification ΔpH−31 activated by the biocompartments,,no longer influence the culture medium
same,respiratory activity of the biocompartments,,no further sign of respiratory activity
O=C(O)CI [iodine acetate],acidification ΔpH−31 activated by the biocompartments,,recedes
same,respiratory activity of the biocompartments,,increase
